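Following 48 hours of exposure in 96-well plates, responses at five concentrations were used to interpolate endpoints linearly. TGI: concentration producing complete growth inhibition.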
Columns and labels:
Assay in all cases: NCI tumour cell line growth inhibition, 48 h
KM12 colon = system: KM12 colon
OVCAR-4 ovarian = system: OVCAR-4 ovarian
ACHN renal = system: ACHN renal
T-47D breast = system: T-47D breast
SW-620 colon = system: SW-620 colon
PC-3 prostate = system: PC-3 prostate
M14 melanoma = system: M14 melanoma
CCRF-CEM leukemia = system: CCRF-CEM leukemia
K-562 leukemia = system: K-562 leukemia
IGROV1 ovarian = system: IGROV1 ovarian
SR leukemia = system: SR leukemia
CAKI-1 renal = system: CAKI-1 renal

| SMILES | TGI (KM12 colon) [µM] | TGI (OVCAR-4 ovarian) [µM] | TGI (ACHN renal) [µM] | TGI (T-47D breast) [µM] | TGI (SW-620 colon) [µM] | TGI (PC-3 prostate) [µM] | TGI (M14 melanoma) [µM] | TGI (CCRF-CEM leukemia) [µM] | TGI (K-562 leukemia) [µM] | TGI (IGROV1 ovarian) [µM] | TGI (SR leukemia) [µM] | TGI (CAKI-1 renal) [µM] |
| --- | --- | --- | --- | --- | --- | --- | --- | --- | --- | --- | --- | --- |
| CCOC(=O)/C(=C\c1ccc(N(C)C)cc1)S(=O)(=O)C(F)(F)C(F)(F)C(F)(F)C(F)(F)F | > 100 | > 100 | > 100 | > 100 | > 100 | > 100 | > 100 | > 100 | > 100 | > 100 | > 100 | > 100 |
| Clc1cc2c(c(CSC3=NCN(CC4CC4)CN3)c1)OCOC2 | > 100 | > 100 | 45.6 | 62.2 | 65.1 | 65.8 | 27.9 | 27.2 | > 100 | > 100 | 42.2 | > 100 |
| CC(C(=O)ON1C(=O)CCC1=O)c1ccc(C(=O)c2ccccc2)s1 (stereo unspecified) | > 100 | > 100 | > 100 | > 100 | > 100 | > 100 | > 100 | > 100 | > 100 | > 100 | > 100 | > 100 |
| Cc1ccc(OCC2OC(n3cnc4nc(Cl)nc(Cl)c43)CC2Oc2ccc(C)cc2)cc1 (stereo unspecified) | 23.7 | 56.1 | 7.9 | 30.7 | 28 | 24.5 | 20.5 | > 23.1 | 4.83 | 19.7 | 5.65 | 9.75 |
| Cc1ccnc2[nH]c(-c3cccc(Cl)c3)cc(=O)c12 | > 47.8 | > 100 | > 100 | > 100 | > 100 | > 100 | > 100 | > 100 |  | > 100 | > 100 | > 47.8 |
| O=C1/C(=C\c2cccc(Oc3ccccc3)c2)S(=O)(=O)C(c2ccccc2)N1c1ccccc1Cl (stereo unspecified) | > 100 | 98.1 | > 100 | > 100 | > 100 | > 100 | 89.1 | 51.2 | 64.2 | > 100 | 62.4 | > 100 |
| O=C(Nc1cccc(C(F)(F)F)c1)O/N=C(/Cl)CCl | > 100 | > 100 | > 100 | > 100 | > 100 | > 100 | > 100 | > 100 | > 100 | > 100 | 62.8 | > 100 |
| COc1cccc(-c2ccc3c4c2O[C@H]2c5[nH]c6ccccc6c5C[C@@]5(O)[C@@H](C3)N(CC3CC3)CC[C@]425)c1 | 3.26 | 3.27 | 2.98 | 4.23 | 4.77 | 2.48 | 3.27 | > 100 | 4.98 | 3.04 | 5.51 | 4.9 |
| NC(=O)c1nnc2cc(F)ccc2c1N | > 100 | > 100 | > 100 | > 100 | > 100 | > 100 | > 100 | > 100 | > 100 | > 100 | > 100 | > 100 |
| C=CCOCn1cnc2c(N)ncnc21 | > 100 | > 100 | > 100 | > 100 | > 100 | > 100 | > 100 | > 100 | > 100 | > 100 | > 100 | > 100 |
| O=c1[nH]nc(-c2ccccc2)n1/N=C/c1ccncc1 | > 100 | > 100 | > 100 | > 100 | > 100 | > 100 | > 100 | > 100 | > 100 | > 100 | > 100 | > 100 |
| CC(=O)N1CCc2c([nH]c3ccc(Br)cc23)C1c1ccccc1 (stereo unspecified) | > 10 | > 10 | > 10 | > 10 | > 10 | > 10 | > 10 | > 10 | > 10 | > 10 | > 10 | > 10 |
| Cc1c(C(=O)N2CCN(c3ccc([N+](=O)[O-])cc3)CC2)[n+](=O)c2cc(Cl)c(Cl)cc2n1[O-] | > 100 | 29.5 | 26.3 | 45 | > 100 | 45 | > 100 | > 100 | > 100 | 42.7 | 61.2 | 64.3 |
| CN1C(=S)C(c2ccccc2)Sc2ccccc21 (stereo unspecified) | > 100 | > 100 | > 100 | > 100 |  | > 100 | > 100 | > 100 | > 100 | > 100 | > 100 | > 100 |
